Results as given in PubChem BioAssay AID1745844 (Carcinogenic Potency Database (CPDB), 2022).
The source made the active and inactive calls. The rule behind the calls is not given here.

Test system: rodent lifetime carcinogenesis bioassay, tumor incidence TD50
Experiment: carcinogenic potency in animals, long-term in vivo studies, CPDB compilation (AID 1745844)

Question: How did the carcinogen call (mouse, strain B6C3F1, females, in feed, site: any site (literature study), lesion: several types, types named in the paper, dosed 103 weeks, study length 105 weeks) turn out when `Nc1ccc(O)c([N+](=O)[O-])c1` was run?
Answer: negative (inactive)

Question: What about the TD50 (mouse, strain B6C3F1, females, in feed, site: liver, lesion: hepatocellular adenoma + hepatocellular carcinoma + neoplastic nodule, dosed 103 weeks, study length 105 weeks) of the same compound?
Answer: 3650 mg/kg/day

Question: And the carcinogen call (mouse, strain B6C3F1, males, in feed, site: any site (literature study), lesion: several types, types named in the paper, dosed 103 weeks, study length 105 weeks)?
Answer: negative (inactive)

Question: And the TD50 (mouse, strain B6C3F1, males, in feed, site: liver, lesion: hepatocellular adenoma + hepatocellular carcinoma + neoplastic nodule, dosed 103 weeks, study length 105 weeks)?
Answer: 2250 mg/kg/day

Question: What about the TD50 (rat, strain Fischer 344, females, in feed, site: urinary bladder, lesion: transitional-cell carcinoma, dosed 103 weeks, study length 105 weeks) of the same compound?
Answer: 1880 mg/kg/day

Question: What about the TD50 (rat, strain Fischer 344, males, in feed, site: any site (literature study), lesion: several types, types named in the paper, dosed 103 weeks, study length 105 weeks) of the same compound?
Answer: 270 mg/kg/day

Question: And the TD50 (rat, strain Fischer 344, males, in feed, site: urinary bladder, lesion: transitional-cell carcinoma, dosed 103 weeks, study length 105 weeks)?
Answer: 309 mg/kg/day

Question: What does the source list for `CCN(C#N)N=O`?
Answer: TD50 (rat, strain MRC-Wistar, females, in drinking water, site: any site (literature study), lesion: several types, types named in the paper, dosed 52 weeks, study length 90 weeks): 3.17 mg/kg/day; TD50 (rat, strain MRC-Wistar, females, in drinking water, site: respiratory system, lesion: one or several types, types not named, dosed 52 weeks, study length 90 weeks): 2.91 mg/kg/day; TD50 (rat, strain MRC-Wistar, males, in drinking water, site: respiratory system, lesion: one or several types, types not named, dosed 52 weeks, study length 90 weeks): 4.99 mg/kg/day

Question: For `CN(CCCO)N=O`, which TD50 (rat, strain Fischer 344, females, by gavage, site: liver, lesion: neoplastic nodule, dosed 130 weeks, study length 130 weeks) is on record?
Answer: 3.48 mg/kg/day

Question: What about the TD50 (rat, strain Fischer 344, females, by gavage, site: lung, lesion: alveolar/bronchiolar adenoma, dosed 130 weeks, study length 130 weeks) of the same compound?
Answer: 14.4 mg/kg/day

Question: And the TD50 (rat, strain Fischer 344, females, by gavage, site: lung, lesion: alveolar/bronchiolar carcinoma, dosed 130 weeks, study length 130 weeks)?
Answer: 24.9 mg/kg/day

Question: What about the TD50 (rat, strain Fischer 344, females, by gavage, site: lung, lesion: several types, types named in the paper, dosed 130 weeks, study length 130 weeks) of the same compound?
Answer: 8.06 mg/kg/day

Question: What about the TD50 (rat, strain Fischer 344, males, by gavage, site: liver, lesion: neoplastic nodule, dosed 130 weeks, study length 130 weeks) of the same compound?
Answer: 4.78 mg/kg/day

Question: What about the TD50 (rat, strain Fischer 344, males, by gavage, site: lung, lesion: alveolar/bronchiolar adenoma, dosed 130 weeks, study length 130 weeks) of the same compound?
Answer: 8.46 mg/kg/day

Question: What about the TD50 (rat, strain Fischer 344, males, by gavage, site: lung, lesion: alveolar/bronchiolar carcinoma, dosed 130 weeks, study length 130 weeks) of the same compound?
Answer: 2.46 mg/kg/day

Question: What about the TD50 (rat, strain Fischer 344, males, by gavage, site: lung, lesion: several types, types named in the paper, dosed 130 weeks, study length 130 weeks) of the same compound?
Answer: 1.09 mg/kg/day

Question: And the TD50 (rat, strain Fischer 344, males, by gavage, site: testis, lesion: interstitial-cell tumor, dosed 130 weeks, study length 130 weeks)?
Answer: 2.26 mg/kg/day

Question: How did the carcinogen call (rat, strain Fischer 344, males, by gavage, site: liver, lesion: one or several types, types not named, dosed 50 weeks, study length 83 weeks) turn out when `CCCC[N+](=O)[O-]` was run?
Answer: negative (inactive)

Question: Which TD50 (mouse, strain B6C3F1, females, in feed, site: liver, lesion: hepatocellular adenoma, dosed 103 weeks, study length 106 weeks) does the source give for `Nc1ccc(N)c2c1C(=O)c1c(N)ccc(N)c1C2=O` here?
Answer: 150 mg/kg/day (inactive)

Question: And the TD50 (mouse, strain B6C3F1, females, in feed, site: lung, lesion: alveolar/bronchiolar adenoma + alveolar/bronchiolar carcinoma, dosed 103 weeks, study length 106 weeks)?
Answer: 9310 mg/kg/day

Question: What about the TD50 (mouse, strain B6C3F1, males, in feed, site: any site (literature study), lesion: several types, types named in the paper, dosed 104 weeks, study length 105 weeks) of the same compound?
Answer: 1290 mg/kg/day

Question: And the TD50 (mouse, strain B6C3F1, males, in feed, site: liver, lesion: hepatocellular adenoma + hepatocellular carcinoma + neoplastic nodule, dosed 104 weeks, study length 105 weeks)?
Answer: 534 mg/kg/day

Question: What about the TD50 (mouse, strain B6C3F1, males, in feed, site: liver, lesion: hepatocellular adenoma + hepatocellular carcinoma, dosed 104 weeks, study length 105 weeks) of the same compound?
Answer: 534 mg/kg/day

Question: And the TD50 (mouse, strain B6C3F1, males, in feed, site: lung, lesion: alveolar/bronchiolar adenoma + alveolar/bronchiolar carcinoma, dosed 104 weeks, study length 105 weeks)?
Answer: 701 mg/kg/day

Question: And the TD50 (mouse, strain B6C3F1, males, in feed, site: lung, lesion: alveolar/bronchiolar adenoma, dosed 104 weeks, study length 105 weeks)?
Answer: 925 mg/kg/day

Question: What about the TD50 (rat, strain Fischer 344, females, in feed, site: any site (literature study), lesion: several types, types named in the paper, dosed 103 weeks, study length 104 weeks) of the same compound?
Answer: 130 mg/kg/day

Question: And the TD50 (rat, strain Fischer 344, females, in feed, site: pancreatic islets, lesion: islet-cell carcinoma, dosed 103 weeks, study length 104 weeks)?
Answer: 291 mg/kg/day

Question: What about the TD50 (rat, strain Fischer 344, females, in feed, site: pituitary gland + pancreatic islets, lesion: carcinoma, NOS + islet-cell carcinoma, dosed 103 weeks, study length 104 weeks) of the same compound?
Answer: 323 mg/kg/day

Question: And the TD50 (rat, strain Fischer 344, females, in feed, site: urinary bladder, lesion: leiomyoma, dosed 103 weeks, study length 104 weeks)?
Answer: 1540 mg/kg/day

Question: And the TD50 (rat, strain Fischer 344, females, in feed, site: urinary bladder, lesion: leiomyosarcoma + leiomyoma + squamous-cell carcinoma + squamous-cell papilloma + transitional-cell carcinoma + transitional-cell p, dosed 103 weeks, study length 104 weeks)?
Answer: 131 mg/kg/day

Question: And the TD50 (rat, strain Fischer 344, females, in feed, site: urinary bladder, lesion: leiomyosarcoma + leiomyoma, dosed 103 weeks, study length 104 weeks)?
Answer: 250 mg/kg/day

Question: What about the TD50 (rat, strain Fischer 344, females, in feed, site: urinary bladder, lesion: leiomyosarcoma, dosed 103 weeks, study length 104 weeks) of the same compound?
Answer: 294 mg/kg/day

Question: And the TD50 (rat, strain Fischer 344, females, in feed, site: urinary bladder, lesion: squamous-cell carcinoma + squamous-cell papilloma, dosed 103 weeks, study length 104 weeks)?
Answer: 664 mg/kg/day

Question: And the TD50 (rat, strain Fischer 344, females, in feed, site: urinary bladder, lesion: squamous-cell carcinoma, dosed 103 weeks, study length 104 weeks)?
Answer: 1580 mg/kg/day

Question: And the TD50 (rat, strain Fischer 344, females, in feed, site: urinary bladder, lesion: squamous-cell papilloma, dosed 103 weeks, study length 104 weeks)?
Answer: 1020 mg/kg/day

Question: And the TD50 (rat, strain Fischer 344, females, in feed, site: urinary bladder, lesion: transitional-cell carcinoma + transitional-cell papilloma, dosed 103 weeks, study length 104 weeks)?
Answer: 198 mg/kg/day

Question: And the TD50 (rat, strain Fischer 344, females, in feed, site: urinary bladder, lesion: transitional-cell carcinoma, dosed 103 weeks, study length 104 weeks)?
Answer: 307 mg/kg/day

Question: And the TD50 (rat, strain Fischer 344, females, in feed, site: urinary bladder, lesion: transitional-cell papilloma, dosed 103 weeks, study length 104 weeks)?
Answer: 317 mg/kg/day

Question: And the TD50 (rat, strain Fischer 344, males, in feed, site: any site (literature study), lesion: several types, types named in the paper, dosed 103 weeks, study length 104 weeks)?
Answer: 39.3 mg/kg/day

Question: And the TD50 (rat, strain Fischer 344, males, in feed, site: pancreatic islets, lesion: islet-cell adenoma + islet-cell carcinoma, dosed 103 weeks, study length 104 weeks)?
Answer: 414 mg/kg/day

Question: And the TD50 (rat, strain Fischer 344, males, in feed, site: pancreatic islets, lesion: islet-cell adenoma, dosed 103 weeks, study length 104 weeks)?
Answer: 810 mg/kg/day

Question: And the TD50 (rat, strain Fischer 344, males, in feed, site: subcutaneous tissue, lesion: sarcoma, NOS, dosed 103 weeks, study length 104 weeks)?
Answer: 1830 mg/kg/day

Question: What about the TD50 (rat, strain Fischer 344, males, in feed, site: testis, lesion: interstitial-cell tumor, dosed 103 weeks, study length 104 weeks) of the same compound?
Answer: 100 mg/kg/day

Question: And the TD50 (rat, strain Fischer 344, males, in feed, site: thyroid gland, lesion: c-cell adenoma + c-cell carcinoma, dosed 103 weeks, study length 104 weeks)?
Answer: 474 mg/kg/day

Question: And the TD50 (rat, strain Fischer 344, males, in feed, site: thyroid gland, lesion: c-cell adenoma, dosed 103 weeks, study length 104 weeks)?
Answer: 529 mg/kg/day

Question: What about the TD50 (rat, strain Fischer 344, males, in feed, site: urinary bladder, lesion: leiomyosarcoma + leiomyoma + squamous-cell carcinoma + squamous-cell papilloma + transitional-cell carcinoma + transitional-cell p, dosed 103 weeks, study length 104 weeks) of the same compound?
Answer: 89.3 mg/kg/day

Question: And the TD50 (rat, strain Fischer 344, males, in feed, site: urinary bladder, lesion: leiomyosarcoma + leiomyoma, dosed 103 weeks, study length 104 weeks)?
Answer: 129 mg/kg/day

Question: And the TD50 (rat, strain Fischer 344, males, in feed, site: urinary bladder, lesion: leiomyosarcoma, dosed 103 weeks, study length 104 weeks)?
Answer: 131 mg/kg/day

Question: And the TD50 (rat, strain Fischer 344, males, in feed, site: urinary bladder, lesion: squamous-cell carcinoma + squamous-cell papilloma, dosed 103 weeks, study length 104 weeks)?
Answer: 803 mg/kg/day

Question: What about the TD50 (rat, strain Fischer 344, males, in feed, site: urinary bladder, lesion: squamous-cell papilloma, dosed 103 weeks, study length 104 weeks) of the same compound?
Answer: 1260 mg/kg/day

Question: What about the TD50 (rat, strain Fischer 344, males, in feed, site: urinary bladder, lesion: transitional-cell carcinoma + transitional-cell papilloma, dosed 103 weeks, study length 104 weeks) of the same compound?
Answer: 245 mg/kg/day

Question: What about the TD50 (rat, strain Fischer 344, males, in feed, site: urinary bladder, lesion: transitional-cell carcinoma, dosed 103 weeks, study length 104 weeks) of the same compound?
Answer: 506 mg/kg/day

Question: And the TD50 (rat, strain Fischer 344, males, in feed, site: urinary bladder, lesion: transitional-cell papilloma, dosed 103 weeks, study length 104 weeks)?
Answer: 370 mg/kg/day

Question: `Cn1cnc([N+](=O)[O-])c1Sc1ncnc2nc[nH]c12` was tested. Which TD50 (monkey, strain Rhesus [Macaca mulatta], both sexes, in feed, site: any site (literature study), lesion: benign tumor, dosed 774 weeks, study length 851 weeks) did it give?
Answer: 4.89 mg/kg/day

Question: What about the TD50 (monkey, strain Rhesus [Macaca mulatta], both sexes, in feed, site: any site (literature study), lesion: several types, types named in the paper, dosed 774 weeks, study length 851 weeks) of the same compound?
Answer: 3.68 mg/kg/day

Question: What about the TD50 (monkey, strain Rhesus [Macaca mulatta], both sexes, in feed, site: leptomeninges, lesion: lymphocytic lymphoma, dosed 774 weeks, study length 851 weeks) of the same compound?
Answer: 6.79 mg/kg/day

Question: And the TD50 (monkey, strain Rhesus [Macaca mulatta], both sexes, in feed, site: salivary gland, lesion: adenoma, dosed 774 weeks, study length 851 weeks)?
Answer: 2.18 mg/kg/day

Question: And the TD50 (monkey, strain Rhesus [Macaca mulatta], both sexes, in feed, site: uterus, lesion: leiomyoma, dosed 774 weeks, study length 851 weeks)?
Answer: 2.74 mg/kg/day

Question: What about the TD50 (mouse, strain B6C3F1, females, in feed, site: all sites, lesion: systemic and localized lymphoma, dosed 94 weeks, study length 94 weeks) of the same compound?
Answer: 7.59 mg/kg/day

Question: And the TD50 (mouse, strain B6C3F1, females, in feed, site: all sites, lesion: systemic and localized lymphoma, dosed 100 weeks, study length 100 weeks)?
Answer: 43.8 mg/kg/day

Question: What about the TD50 (mouse, strain B6C3F1, females, in feed, site: liver, lesion: hepatocellular adenoma, dosed 100 weeks, study length 100 weeks) of the same compound?
Answer: 67.5 mg/kg/day

Question: What about the TD50 (mouse, strain B6C3F1, females, in feed, site: lung, lesion: one or several types, types not named, dosed 94 weeks, study length 94 weeks) of the same compound?
Answer: 4.89 mg/kg/day

Question: What about the TD50 (mouse, strain B6C3F1, females, in feed, site: uterus, lesion: hemangioendothelioma, dosed 100 weeks, study length 100 weeks) of the same compound?
Answer: 8.92 mg/kg/day

Question: What about the TD50 (mouse, strain B6C3F1, males, in feed, site: all sites, lesion: systemic and localized lymphoma, dosed 100 weeks, study length 100 weeks) of the same compound?
Answer: 9.66 mg/kg/day

Question: And the TD50 (mouse, strain B6C3F1, males, in feed, site: liver, lesion: hepatocellular carcinoma, dosed 100 weeks, study length 100 weeks)?
Answer: 55.9 mg/kg/day

Question: What about the TD50 (mouse, strain B6C3F1, males, in feed, site: lung, lesion: carcinoma, dosed 100 weeks, study length 100 weeks) of the same compound?
Answer: 55.9 mg/kg/day

Question: What about the TD50 (rat, strain Fischer 344, females, in feed, site: ear duct, lesion: squamous-cell carcinoma, dosed 52 weeks, study length 52 weeks) of the same compound?
Answer: 10.1 mg/kg/day

Question: And the carcinogen call (rat, strain Fischer 344, females, in feed, site: liver, lesion: one or several types, types not named, dosed 52 weeks, study length 52 weeks)?
Answer: negative (inactive)
